The subject of data set [1] is HCV replicon RNA (GenBank Accession No. AJ242654). Put plainly: HCV Replicon Assay (replicon RNA reduction and/or Fluc reporter signal). The class given is cell-based, Hepatitis C virus. To be noted: Hepatitis C virus, 72 h, replicon-containing cells cultured with test compound for up to 3 days. Summed up: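 IC50 values mostly reflect the drop in replicon RNA, though Fluc reporter signal may also be used. Compound incubated with cells carrying the bicistronic replicon for as long as 3 days; interferon served as positive control.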

With `C[C@H](NS(=O)(=O)c1ccc(-c2c(C#N)c3cc(F)cnc3n2CC2CC2)nc1)C(F)(F)F` [Cpd 64, 6-[3-cyano-1-(cyclopropylmethyl)-5-fluoro-1H-pyrrolo[2,3-b]pyridin-2-yl]-N-[(2S)-1,1,1-trifluoropropan-2-yl]pyridine-3-sulfonamide], the melting point lay in the range of 186 to 188 °C. Moreover, the IC50 in data set [1] is under 500 nM.

As for `COc1cnc2c(c1)c(C#N)c(-c1ccc(S(=O)(=O)NC(CF)CF)cc1)n2C1CCC1` [Cpd 65, 4-(3-cyano-1-cyclobutyl-5-methoxy-1H-pyrrolo[2,3-b]pyridin-2-yl)-N-(1,3-difluoropropan-2-yl)benzenesulfonamide], the melting point is 215 to 218 °C. In data set [1], this compound yielded an IC50 of under 500 nM.

As to `COc1cnc2c(c1)c(C#N)c(-c1ccc(S(=O)(=O)N[C@@H](C)C(F)(F)F)cn1)n2CC1CC1` [Cpd 66, 6-[3-cyano-1-(cyclopropylmethyl)-5-methoxy-1H-pyrrolo[2,3-b]pyridin-2-yl]-N-[(2S)-1,1,1-trifluoropropan-2-yl]pyridine-3-sulfonamide], the melting point was 136 to 140 °C. Also, in data set [1], the IC50 is under 500 nM.

For the compound `C[C@H](NS(=O)(=O)c1ccc(-c2c(C#N)c3cc(Cl)ncc3n2C2CCC2)nc1)C(F)(F)F` [Cpd 67, 6-(5-chloro-3-cyano-1-cyclobutyl-1H-pyrrolo[2,3-c]pyridin-2-yl)-N-[(2S)-1,1,1-trifluoropropan-2-yl]pyridine-3-sulfonamide], the melting point lay within 180 to 183 °C. Also, in data set [1], the IC50 is under 500 nM.

On to `Cc1cnc2c(c1)c(C#N)c(-c1ccc(S(=O)(=O)N[C@H](C)C(F)(F)F)cn1)n2C1CCC1` [Cpd 68, 6-(3-cyano-1-cyclobutyl-5-methyl-1H-pyrrolo[2,3-b]pyridin-2-yl)-N-[(2R)-1,1,1-trifluoropropan-2-yl]pyridine-3-sulfonamide], for which the melting point was 176 to 178 °C. Moreover, the half-inhibitory concentration (IC50) in data set [1] was under 500 nM.

`Cc1cnc2c(c1)c(C#N)c(-c1ccc(S(=O)(=O)N[C@@H](C)C(F)(F)F)cn1)n2C1CCC1` [Cpd 69, 6-(3-cyano-1-cyclobutyl-5-methyl-1H-pyrrolo[2,3-b]pyridin-2-yl)-N-[(2S)-1,1,1-trifluoropropan-2-yl]pyridine-3-sulfonamide]: the melting point fell in the range of 177 to 179 °C. Further, the IC50 in data set [1] is under 500 nM.

Consider `Cc1cnc2c(c1)c(C#N)c(-c1ncc(S(=O)(=O)N[C@H](C)C(F)(F)F)cn1)n2C1CCC1` [Cpd 70, 2-(3-cyano-1-cyclobutyl-5-methyl-1H-pyrrolo[2,3-b]pyridin-2-yl)-N-[(2R)-1,1,1-trifluoropropan-2-yl]pyrimidine-5-sulfonamide], for which the melting point lay within 186 to 188 °C. In data set [1], this compound returned an IC50 of under 500 nM.

With `Cc1cnc2c(c1)c(C#N)c(-c1ncc(S(=O)(=O)N[C@@H](C)C(F)(F)F)cn1)n2C1CCC1` [Cpd 71, 2-(3-cyano-1-cyclobutyl-5-methyl-1H-pyrrolo[2,3-b]pyridin-2-yl)-N-[(2S)-1,1,1-trifluoropropan-2-yl]pyrimidine-5-sulfonamide], the melting point was in the range of 186 to 188 °C. Also, in data set [1], the IC50 was under 500 nM.

Compound `Cc1cnc2c(c1)c(C#N)c(-c1ccc(S(=O)(=O)N[C@H](C)C(F)(F)F)cc1)n2C1CCC1` [Cpd 72, 4-(3-cyano-1-cyclobutyl-5-methyl-1H-pyrrolo[2,3-b]pyridin-2-yl)-N-[(2R)-1,1,1-trifluoropropan-2-yl]benzenesulfonamide] displayed a melting point of 197 to 198 °C. This compound also returned a 50% inhibitory concentration (IC50) in data set [1] of under 500 nM.

Compound `Cc1cnc2c(c1)c(C#N)c(-c1ccc(S(=O)(=O)N[C@@H](C)C(F)(F)F)cc1)n2C1CCC1` [Cpd 73, 4-(3-cyano-1-cyclobutyl-5-methyl-1H-pyrrolo[2,3-b]pyridin-2-yl)-N-[(2S)-1,1,1-trifluoropropan-2-yl]benzenesulfonamide] displayed a melting point of 197 to 198 °C. In data set [1], this compound gave a 50% inhibitory concentration (IC50) of under 500 nM.

In the case of `Cc1cnc2c(c1)c(C#N)c(-c1ccc(S(=O)(=O)NC3(C(F)(F)F)CC3)cn1)n2C1CCC1` [Cpd 74, 6-(3-cyano-1-cyclobutyl-5-methyl-1H-pyrrolo[2,3-b]pyridin-2-yl)-N-[1-(trifluoromethyl)cyclopropyl]pyridine-3-sulfonamide], the melting point was 245 to 247 °C. Moreover, the half-maximal inhibitory concentration (IC50) in data set [1] was under 500 nM.

The compound `Cc1cnc2c(c1)c(C#N)c(-c1ccc(S(=O)(=O)NC3(C(F)(F)F)CC3)cc1)n2C1CCC1` [Cpd 75, 4-(3-cyano-1-cyclobutyl-5-methyl-1H-pyrrolo[2,3-b]pyridin-2-yl)-N-[1-(trifluoromethyl)cyclopropyl]benzenesulfonamide] came in with a melting point of 187 to 188 °C. In data set [1], the 50% inhibitory concentration (IC50) is under 500 nM.

Compound `Cc1cnc2c(c1)c(C#N)c(-c1ccc(S(=O)(=O)NC3(C)CC3)cn1)n2C1CCC1` [Cpd 76, 6-(3-cyano-1-cyclobutyl-5-methyl-1H-pyrrolo[2,3-b]pyridin-2-yl)-N-(1-methylcyclopropyl)pyridine-3-sulfonamide] gave a melting point of 188 to 189 °C. For the same compound, the half-inhibitory concentration (IC50) in data set [1] was 500 to 2000 nM.

`Cc1cnc2c(c1)c(C#N)c(-c1ccc(S(=O)(=O)NC3(C)CC3)cc1)n2C1CCC1` [Cpd 77, 4-(3-cyano-1-cyclobutyl-5-methyl-1H-pyrrolo[2,3-b]pyridin-2-yl)-N-(1-methylcyclopropyl)benzenesulfonamide] came in with a melting point of 188 to 190 °C. In data set [1], this compound had a half-maximal inhibitory concentration (IC50) of under 500 nM.

On to `Cc1cnc2c(c1)c(C#N)c(-c1ncc(S(=O)(=O)NC(C)C)cn1)n2C1CCC1` [Cpd 78, 2-(3-cyano-1-cyclobutyl-5-methyl-1H-pyrrolo[2,3-b]pyridin-2-yl)-N-(propan-2-yl)pyrimidine-5-sulfonamide], for which the melting point is 187 to 190 °C. The 50% inhibitory concentration (IC50) in data set [1] is under 500 nM.

Compound `Cc1cnc2c(c1)c(C#N)c(-c1ccc(S(=O)(=O)NC(C)(C)C(F)(F)F)cc1)n2C1CCC1` [Cpd 79, 4-(3-cyano-1-cyclobutyl-5-methyl-1H-pyrrolo[2,3-b]pyridin-2-yl)-N-(1,1,1-trifluoro-2-methylpropan-2-yl)benzenesulfonamide] showed a melting point of 180 to 181 °C. In addition, in data set [1], the IC50 was under 500 nM.

For `C[C@H](NS(=O)(=O)c1ccc(-c2c(C#N)c3cnc(Cl)cc3n2C2CCCC2)nc1)C(F)(F)F` [Cpd 80, 6-(6-chloro-3-cyano-1-cyclopentyl-1H-pyrrolo[3,2-c]pyridin-2-yl)-N-[(2S)-1,1,1-trifluoropropan-2-yl]pyridine-3-sulfonamide], the melting point lay in the range of 235 to 237 °C. For the same compound, in data set [1], the IC50 is under 500 nM.

Take `C[C@@H](NS(=O)(=O)c1ccc(-c2c(C#N)c3cnc(Cl)cc3n2C2CCCC2)nc1)C(F)(F)F` [Cpd 81, 6-(6-chloro-3-cyano-1-cyclopentyl-1H-pyrrolo[3,2-c]pyridin-2-yl)-N-[(2R)-1,1,1-trifluoropropan-2-yl]pyridine-3-sulfonamide]: the melting point lay within 239 to 240 °C. In data set [1], this compound gave an IC50 of under 500 nM.

Compound `N#Cc1c(-c2ccc(S(=O)(=O)NC(CF)CF)cn2)n(C2CCCC2)c2cc(Cl)ncc12` [Cpd 82, 6-(6-chloro-3-cyano-1-cyclopentyl-1H-pyrrolo[3,2-c]pyridin-2-yl)-N-(1,3-difluoropropan-2-yl)pyridine-3-sulfonamide] had a melting point of 231 to 233 °C. In data set [1], this compound yielded a half-inhibitory concentration (IC50) of under 500 nM.
